We go through one compound from BindingDB's records for doi:10.1021/acs.jmedchem.8b00370 (Genentech, 2018).

This test has as its target Mitogen-activated protein kinase kinase kinase 12 (Homo sapiens) (UniProt Q12852). The test is described as follows: Inhibition of DLK (unknown origin) using myelin basic protein as substrate preincubated for 15 mins measured after 30 mins in presence of [gamma-32P]ATP by scintillation counting.

Sequence of Mitogen-activated protein kinase kinase kinase 12 (Homo sapiens) (Q12852 whole entry, looked up): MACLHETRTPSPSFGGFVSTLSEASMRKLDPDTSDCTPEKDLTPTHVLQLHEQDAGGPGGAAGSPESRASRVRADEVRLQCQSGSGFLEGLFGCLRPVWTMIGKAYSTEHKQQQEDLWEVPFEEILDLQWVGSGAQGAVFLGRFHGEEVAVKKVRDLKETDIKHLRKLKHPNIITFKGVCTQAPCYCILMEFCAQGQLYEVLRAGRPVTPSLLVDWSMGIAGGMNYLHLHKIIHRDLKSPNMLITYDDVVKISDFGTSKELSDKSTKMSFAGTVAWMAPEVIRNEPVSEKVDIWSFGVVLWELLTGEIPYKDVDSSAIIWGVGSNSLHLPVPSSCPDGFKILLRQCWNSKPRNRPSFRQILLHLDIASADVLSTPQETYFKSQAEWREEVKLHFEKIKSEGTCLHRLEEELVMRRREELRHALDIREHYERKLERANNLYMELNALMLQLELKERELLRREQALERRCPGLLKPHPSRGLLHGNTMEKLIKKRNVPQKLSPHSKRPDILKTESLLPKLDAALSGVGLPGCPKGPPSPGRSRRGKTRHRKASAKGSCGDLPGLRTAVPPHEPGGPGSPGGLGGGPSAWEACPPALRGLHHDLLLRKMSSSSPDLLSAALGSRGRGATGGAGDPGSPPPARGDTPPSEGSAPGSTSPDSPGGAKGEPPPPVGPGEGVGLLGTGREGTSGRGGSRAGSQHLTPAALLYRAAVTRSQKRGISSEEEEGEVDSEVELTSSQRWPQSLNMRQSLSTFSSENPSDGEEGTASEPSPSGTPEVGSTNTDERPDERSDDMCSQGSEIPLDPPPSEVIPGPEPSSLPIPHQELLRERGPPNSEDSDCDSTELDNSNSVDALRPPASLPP

For the compound `CC(C)n1c2ccc(Oc3ncccn3)cc2c2c3c(c4c(c21)CCc1nn(C)cc1-4)C(=O)NC3`, the IC50 was 1 nM.

The term IC50 denotes the concentration that gives 50% inhibition.
